Here are results for one molecule from the NIST ThermoML archive (doi:10.1016/j.fluid.2014.01.008).

Numbers after ± are expanded uncertainties.

The conditions of this series: Crystal; DTA.

Take `O=C1C=CC(=O)O1` [maleic anhydride]: the Normal melting temperature turned out to be 52.80 ± 0.5 °C.
